This is an account of results in patent US6043241A, “Ketoacid endothelin antagonists” (Warner-Lambert Company, priority 1998, dated 2000).

One data set relates to pulmonary hypertension. Particulars: rat hypoxia model; cited from earlier work.
The subject of data set [1] is early cerebral vasospasm. Particulars: in vivo; cited from earlier work.
Another data set deals with chronic heart failure. As to conditions: patients with chronic heart failure; cited from earlier work.
The next data set has as its system acute renal ischemia. Particulars: in vivo; cited from earlier work.
Data set [2] relates to ET-1-induced changes in gastric mucosal hemodynamics. Particulars: in vivo; cited from earlier work.
The next data set concerns the target T1, human ETA R (Homo sapiens, UniProt P25101).
T1 construct: expressed in transfected cells; host or cells: Ltk- cells (membranes)
T1 sequence (P25101 21-427): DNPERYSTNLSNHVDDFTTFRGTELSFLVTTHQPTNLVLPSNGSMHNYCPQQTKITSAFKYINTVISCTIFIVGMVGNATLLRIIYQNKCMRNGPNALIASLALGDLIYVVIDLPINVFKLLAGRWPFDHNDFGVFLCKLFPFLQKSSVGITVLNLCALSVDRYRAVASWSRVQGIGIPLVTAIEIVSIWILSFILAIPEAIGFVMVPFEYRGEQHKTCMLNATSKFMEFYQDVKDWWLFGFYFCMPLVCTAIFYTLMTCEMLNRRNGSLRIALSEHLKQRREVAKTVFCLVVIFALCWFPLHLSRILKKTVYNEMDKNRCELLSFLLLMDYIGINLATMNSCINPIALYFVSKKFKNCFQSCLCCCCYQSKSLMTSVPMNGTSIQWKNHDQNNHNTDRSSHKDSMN
The data set can be described thus: Competition radioligand binding assay, [125I]-ET-1, Ltk- cells expressing human ETA R (HERBA A). Particulars: Ltk- cell membranes, 40 pM [125I]-ET-1, 2 hours at 37° C. How it is done: (§1) The following cultured cells were used in binding experiments: CHO-K1 cells expressing recombinant human ETB R (HERBA B), or Ltk^- cells expressing human ETA R (HERBA A). […] Membranes were prepared from cultured cells by lysing cells in cold lysis buffer (5 mM HEPES, 2 mM EDTA, pH 7.4) and homogenizing with a Dounce "A" homogenizer. All of the homogenates were centrifuged at 30,000×g for 20 minutes at 4° C. Membrane pellets were resuspended in cold buffer containing 20 mM Tris, 2 mM EDTA, 200 μM Pefablock, 10 μM phosphoramidon, 10 μM leupeptin, and 1 μM pepstatin (pH 7.4) and frozen at -80° C. until use. Radioligand and competing ligands were prepared in binding buffer containing 20 mM Tris, 2 mM EDTA, and 0.1% BSA.
(§2) The assay was terminated by filtration over Whatman GF/B filters that were presoaked with 50 mM Tris, pH 7.4, containing 0.2% BSA and 100 μM bacitracin. […] binding was defined as total binding minus nonspecific binding.

The next data set addresses T2, human ETB R (Homo sapiens, UniProt P24530).
T2 construct: expressed in transfected cells; host or cells: CHO-K1 cells (membranes)
T2 sequence (P24530 27-442): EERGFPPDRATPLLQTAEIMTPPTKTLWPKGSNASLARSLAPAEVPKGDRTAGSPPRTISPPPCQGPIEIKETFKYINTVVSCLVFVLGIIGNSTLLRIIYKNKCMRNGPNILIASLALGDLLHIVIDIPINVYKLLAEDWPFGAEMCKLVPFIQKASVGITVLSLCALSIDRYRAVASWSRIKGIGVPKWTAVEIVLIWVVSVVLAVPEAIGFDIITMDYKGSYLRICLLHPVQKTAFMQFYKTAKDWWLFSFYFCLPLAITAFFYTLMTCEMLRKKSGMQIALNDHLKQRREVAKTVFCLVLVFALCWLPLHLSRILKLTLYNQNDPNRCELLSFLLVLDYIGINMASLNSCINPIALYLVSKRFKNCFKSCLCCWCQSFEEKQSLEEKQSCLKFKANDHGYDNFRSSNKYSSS
In words: Competition radioligand binding assay, [125I]-ET-1, CHO-K1 cells expressing recombinant human ETB R (HERBA B). As to conditions: CHO-K1 cell membranes, 40 pM [125I]-ET-1, 2 hours at 37° C. How it is done: as §1, §2

In another data set the test system is prostate smooth muscle. Particulars: in vivo; cited from earlier work.
Data set [3] concerns middle cerebral artery occlusion. Particulars: cats, IV; cited from earlier work.
The test system of data set [4] is early cerebral vasospasm. As to conditions: rat SAH; cited from earlier work.
In a further data set the test system is neointima formation. Particulars: rats, carotid artery balloon angioplasty; cited from earlier work.
The subject of data set [5] is basilar artery vasoconstriction. As to conditions: canine two-hemorrhage model of SAH, after 7 days; cited from earlier work.
The next data set has as its system small intestinal mucosa. Particulars: rats, local intra-arterial; cited from earlier work.
In the next data set the test system is liver. As to conditions: cited from earlier work.
For data set [6], the system named is isolated cerebral arterioles. Particulars: cited from earlier work.

Where a SMILES comes first, the peptide text is derived from it. [ ]: non-standard residue; d: D form.

Turning to `CC(C)C[C@@H]1NC(=O)[C@@H](C(C)C)NC(=O)[C@@H]2CCCN2C(=O)[C@@H](CC(=O)O)NC(=O)[C@@H](Cc2c[nH]c3ccccc23)NC1=O` [BQ-123] (cyclo(L[dW][dD]P[dV])), the “increase in pulmonary vascular resistance and pulmonary arterial pressure” value (“increase” below) with pulmonary hypertension is “lowering the increase in pulmonary vascular resistance and pulmonary arterial pressure”. For the same compound, in the data set on early cerebral vasospasm [1], the “early cerebral vasospasm following SAH” value is “prevent early cerebral vasospasm”.
`COc1ccccc1Oc1c(NS(=O)(=O)c2ccc(C(C)(C)C)cc2)nc(-c2ncccn2)nc1OCCO` [Bosentan]: the cardiac performance result in the data set on chronic heart failure is reported as “improve cardiac performance”. Besides, the “increase” value in the data set with pulmonary hypertension is “lowering the increase in pulmonary vascular resistance and pulmonary arterial pressure”. The “efficacy in models of acute renal ischemia” value with acute renal ischemia is listed as “effective in models of acute renal ischemia”. In addition, the “ET-1-induced changes in gastric mucosal hemodynamics and ET-1-induced gastric ulceration” value in data set [2] was “antagonist toward the ET-1-induced changes in gastric mucosal hemodynamics as well as on ET-1-induced gastric ulceration”.
As for `COc1ccc(C(=O)/C(Cc2cc(OC)c(OC)c(OC)c2)=C(/C(=O)O)c2ccc3c(c2)OCO3)cc1` [Example 1, (E)-2-Benzo[1,3]dioxol-5-yl-4-(4-methoxy-phenyl)-4-oxo-3-(3,4,5-trimethoxy-benzyl)-but-2-enoic acid], the IC50 at human ETA R was 65 nM; on human ETB R, > 2500 nM.
The corresponding values for `COc1ccc(/C(C(=O)O)=C(/Cc2ccc3c(c2)OCO3)C(=O)c2cc(OC)c(OC)c(OC)c2)cc1` [Example 2, (E)-3-Benzo[1,3]dioxol-5-ylmethyl-2-(4-methoxy-phenyl)-4-oxo-4-(3,4,5-trimethoxy-phenyl)-but-2-enoic acid] are 58 nM and 10000 nM.
The like results for `CCOc1ccc(C(=O)/C(Cc2cc(OC)c(OC)c(OC)c2)=C(/C(=O)O)c2cc(OC)c3c(c2)OCO3)cc1C` [Example 3] were, in that order, 70 nM and > 2500 nM.
For `COc1ccc(C2(O)OC(=O)C(c3ccc4c(c3)OCO4)=C2Cc2ccccc2)cc1` (stereo not drawn) [PD 155080], the “prostate smooth muscle function” value in the data set on prostate smooth muscle is recorded as “mediate prostate smooth muscle function in vivo”.
Consider `COc1ccc(C2(O)OC(=O)C(c3ccc4c(c3)OCO4)=C2Cc2cc(OC)c(OC)c(OC)c2)cc1` (stereo not drawn) [PD 156707], for which the “increase” value in the data set with pulmonary hypertension was “lowering the increase in pulmonary vascular resistance and pulmonary arterial pressure”. Also, the “volume of ischemic damage in the cerebral hemisphere” value in data set [3] is “significantly reduced”.
For `COc1cccc(Oc2c(NS(=O)(=O)c3ccc(C(C)(C)C)cc3)ncnc2OCCO)c1` [Ro 46-2005], in the data set on early cerebral vasospasm [4], the “systemic arterial blood pressure” value is listed as “no significant effect on systemic arterial blood pressure”.
`CCCOc1ccc2c(c1)[C@@H](c1ccc(OC)cc1OCC(=O)O)[C@H](C(=O)O)[C@H]2c1ccc2c(c1)OCO2` [SB 209670]: the neointima formation result in the data set with neointima formation is “ameliorate neointima formation”.
In the case of FR 139317, in data set [5], the “vasoconstriction of the basilar artery” value is given as “significantly inhibited the vasoconstriction of the basilar artery”.
Consider endothelin, for which the “small intestinal mucosal damage” value in the data set on small intestinal mucosa is “induce small intestinal mucosal damage in rats in a dose-dependent manner”. Besides, the “hepatic vasculature vasoconstriction and hepatic glucose output” value in the data set on liver is “sustained vasoconstriction of the hepatic vasculature and a significant increase in hepatic glucose output”. Besides, the “vasoconstrictor action on isolated cerebral arterioles” value in [6] was “potent vasoconstrictor action”.

Broadly, the IC50 is the concentration that gives 50% inhibition.
